Assay results from patent US7893077B2, “Bisaryl-sulfonamides” (Amgen Inc., priority 2004, dated 2011).

Biological target: T1, PPARγ (Homo sapiens, UniProt P37231)
T1 construct: made in house
T1 sequence (P37231 1-505): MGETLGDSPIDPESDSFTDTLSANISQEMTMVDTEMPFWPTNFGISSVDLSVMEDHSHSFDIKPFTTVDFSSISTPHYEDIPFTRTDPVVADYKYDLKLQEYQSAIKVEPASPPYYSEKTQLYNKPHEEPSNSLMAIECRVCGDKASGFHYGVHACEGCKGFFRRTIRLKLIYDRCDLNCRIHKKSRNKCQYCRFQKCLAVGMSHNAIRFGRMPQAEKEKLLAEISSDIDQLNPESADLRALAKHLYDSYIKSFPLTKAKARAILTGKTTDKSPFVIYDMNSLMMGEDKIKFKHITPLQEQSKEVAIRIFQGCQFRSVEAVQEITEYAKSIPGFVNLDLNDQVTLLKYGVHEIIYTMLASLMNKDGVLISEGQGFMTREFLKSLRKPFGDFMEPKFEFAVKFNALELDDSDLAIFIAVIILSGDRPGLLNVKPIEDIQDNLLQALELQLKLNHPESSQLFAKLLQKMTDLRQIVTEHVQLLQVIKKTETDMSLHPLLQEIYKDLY
Test: PPARγ ligand binding assay utilizing [3H]-BRL 49653 as the radioligand (filtration)
Conditions: concentration required to reduce by 50% the specific binding of [3H]-BRL 49653
Text: The compounds of the present invention can be evaluated for modulation of the PPARγ receptor using assays such as those described in Jiang, et al., Nature 391:82-86 (1998), Ricote, et al., Nature 391:79-82 (1998) and Lehmann, et al., J. Biol. Chem. 270(12): 12953-12956 (1995). Alternatively, the compounds can be evaluated for their ability to displace radiolabeled BRL 49653 from a PPARγ-GST fusion protein as follows:
PPARγ-GST fusion protein (prepared according to standard procedures), [^3H]-BRL 49653 having 50 Ci/mmol specific activity, Polyfiltronics Unifilter 350 filtration plate and glutathione-Sepharose® beads (from Pharmacia: washed twice with 10× binding buffer in which BSA and DTI can be left out).
Binding buffer (10 mM Tris-HCl, pH 8.0, 50 mM KCl, 10 mM DTT, 0.02% BSA and 0.0 1% NP-40) is added in 80-μL amounts to the wells of the filtration plate. The test compound is then added in 10 μL of DMSO. The PPARγ-GST fusion protein and radiolabeled BRL compound are premixed in binding buffer containing 10 mM DTT and added in 10-μL amounts to the wells of the plate to provide final concentrations of 1 µg/well of PPARγ-GST fusion protein and 10 nM [^3H]-BRL 49653 compound. The plate is incubated for 15 min. Glutathione-agarose bead is added in 50 μL of binding buffer, and the plate is vigorously shaken for one hour. The plate is washed four times with 200 μL/well of binding buffer (without BSA and DTT). The bottom of the plate is sealed and 200 μL/well of scintillation cocktail is added. The top of the plate is then sealed and the radioactivity is determined.
IC50 values are defined as the concentration of test compounds required to reduce by 50% the specific binding of [^3H]-BRL 49653 and are represented by (+)<30 μM; (++)<10 μM; (+++)<1 μM.

For `Cc1cc(NS(=O)(=O)c2ccc(Cl)cc2Cl)ncc1Sc1ccc(S(=O)(=O)N2CCOCC2)cc1` [Compound 75, 2,4-Dichloro-N-{4-methyl-5-[4-(morpholine-4-sulfonyl) -phenylsulfanyl]-pyridin-2-yl}-benzenesulfonamide], the IC50 was under 1000 nM.

Work on `COC(=O)c1nc(NS(=O)(=O)c2ccc(Cl)cc2Cl)ccc1Sc1ccc(S(=O)(=O)N2CCOCC2)cc1` [Compound 76, 6-(2,4-Dichloro-benzenesulfonylamino)-3-[4-(morpholine-4-sulfonyl)-phenylsulfanyl]-pyridine-2-carboxylic acid methyl ester] yielded an IC50 of under 1000 nM.

`Cc1nc(NS(=O)(=O)c2ccc(Cl)cc2Cl)ccc1Sc1ccc(S(=O)(=O)N2CCOCC2)cc1` [Compound 77, 2,4-Dichloro-N-{6-methyl-5-[4-(morpholine-4-sulfonyl) -phenylsulfanyl]-pyridin-2-yl}-benzenesulfonamide] gave an IC50 of under 1000 nM.

With `CCCC(=O)c1nc(NS(=O)(=O)c2ccc(Cl)cc2Cl)ccc1Sc1ccc(S(=O)(=O)N2CCOCC2)cc1` [Compound 78, N-{6-Butyryl-5-[4-(morpholine-4-sulfonyl)-phenylsulfanyl]-pyridin-2-yl}-2,4-dichloro-benzenesulfonamide] the IC50 was under 1000 nM.

`O=C(c1nc(NS(=O)(=O)c2ccc(Cl)cc2Cl)ccc1Sc1ccc(S(=O)(=O)N2CCOCC2)cc1)C1CC1` [Compound 79, 2,4-Dichloro-N-{6-cyclopropanecarbonyl-5-[4-(morpholine-4-sulfonyl)-phenylsulfanyl]-pyridin-2-yl}-benzenesulfonamide] gave an IC50 of under 1000 nM.

Work on `CC(C)CC(=O)c1nc(NS(=O)(=O)c2ccc(Cl)cc2Cl)ccc1Sc1ccc(S(=O)(=O)N2CCOCC2)cc1` [Compound 80, 2,4-Dichloro-N-{6-(3-methyl-butyryl)-5-[4-(morpholine-4-sulfonyl)-phenylsulfanyl]-pyridin-2-yl}-benzenesulfonamide] yielded an IC50 of under 1000 nM.

Work on `CCCC(=O)c1nc(NS(=O)(=O)c2ccc(C(F)(F)F)cc2Cl)ccc1Sc1ccc(S(=O)(=O)N2CCCCC2)cc1` [Compound 81, N-{6-Butyryl-5-[4-(piperidine-1-sulfonyl)-phenylsulfanyl]-pyridin-2-yl}-2-chloro-4-trifluoromethyl-benzenesulfonamide] yielded an IC50 of under 1000 nM.

In the case of `O=C(c1nc(NS(=O)(=O)c2ccc(Cl)cc2Cl)ccc1Sc1ccc(S(=O)(=O)N2CCCCC2)cc1)C1CC1` [Compound 82, 2,4-Dichloro-N-{6-cyclopropanecarbonyl-5-[4-(piperidine-1-sulfonyl)-phenylsulfanyl]-pyridin-2-yl}-benzenesulfonamide], the IC50 is reported as under 1000 nM.

For `CC(C)CC(=O)c1nc(NS(=O)(=O)c2ccc(Cl)cc2Cl)ccc1Sc1ccc(S(=O)(=O)N2CCCCC2)cc1` [Compound 83, 2,4-Dichloro-N-{6-(3-methyl-butyryl)-5-[4-(piperidine-1-sulfonyl)-phenylsulfanyl]-pyridin-2-yl}-benzenesulfonamide], the IC50 was under 1000 nM.

`CCC(=O)c1nc(NS(=O)(=O)c2ccc(Cl)cc2Cl)ccc1Sc1ccc(S(=O)(=O)N2CCCCC2)cc1` [Compound 84, 2,4-Dichloro-N-{5-[4-(piperidine-1-sulfonyl)-phenylsulfanyl]-6-propionyl-pyridin-2-yl}-benzenesulfonamide] showed an IC50 of under 1000 nM.

Work on `CC(C)NC(=O)c1nc(NS(=O)(=O)c2ccc(Cl)cc2Cl)ccc1Sc1ccc(S(=O)(=O)N2CCCCC2)cc1` [Compound 85, 6-(2,4-Dichloro-benzenesulfonylamino)-3-[4-(piperidine-1-sulfonyl)-phenylsulfanyl]-pyridine-2-carboxylic acid isopropylamide] yielded an IC50 of under 1000 nM.

With `CCC(=O)c1nc(NS(=O)(=O)c2ccc(Cl)cc2Cl)ccc1Sc1ccc(S(=O)(=O)N2CCOCC2)cc1` [Compound 86, 2,4-Dichloro-N-{5-[4-(morpholine-4-sulfonyl)-phenylsulfanyl]-6-propionyl-pyridin-2-yl}-benzenesulfonamide] the IC50 was under 1000 nM.

For `CCCC(=O)c1nc(NS(=O)(=O)c2ccc(C(F)(F)F)cc2Cl)ccc1Sc1ccc(S(=O)(=O)N2CCOCC2)cc1` [Compound 87, N-{6-Butyryl-5-[4-(morpholine-4-sulfonyl)-phenylsulfanyl]-pyridin-2-yl}-2-chloro-4-trifluoromethyl-benzenesulfonamide], the IC50 was under 1000 nM.

`O=C(c1nc(NS(=O)(=O)c2ccc(C(F)(F)F)cc2Cl)ccc1Sc1ccc(S(=O)(=O)N2CCOCC2)cc1)C1CC1` [Compound 88, 2-Chloro-N-{6-cyclopropanecarbonyl-5-[4-(morpholine-4-sulfonyl)-phenylsulfanyl]-pyridin-2-yl}-4-trifluoromethyl-benzenesulfonamide] showed an IC50 of under 1000 nM.

With `O=C(c1nc(NS(=O)(=O)c2ccc(C(F)(F)F)cc2Cl)ccc1Sc1ccc(S(=O)(=O)N2CCCCC2)cc1)C1CC1` [Compound 89, 2-Chloro-N-{6-cyclopropanecarbonyl-5-[4-(piperidine-1-sulfonyl)-phenylsulfanyl]-pyridin-2-yl}-4-trifluoromethyl-benzenesulfonamide] the IC50 was under 1000 nM.

`CCCC(=O)c1nc(NS(=O)(=O)c2ccc(Cl)cc2Cl)ccc1Sc1ccc(S(=O)(=O)N2CCCC2)cc1` [Compound 94, N-{6-Butyryl-5-[4-(pyrrolidine-1-sulfonyl)-phenylsulfanyl]-pyridin-2-yl}-2,4-dichloro-benzenesulfonamide] gave an IC50 of under 1000 nM.

`O=C(c1nc(NS(=O)(=O)c2ccc(Cl)cc2Cl)ccc1Sc1ccc(S(=O)(=O)N2CCCC2)cc1)C1CC1` [Compound 95, 2,4-Dichloro-N-{6-cyclopropanecarbonyl-5-[4-(pyrrolidine-1-sulfonyl)-phenylsulfanyl]-pyridin-2-yl}-benzenesulfonamide] was tested, and the IC50 was under 1000 nM.

`CCC(=O)c1nc(NS(=O)(=O)c2ccc(Cl)cc2Cl)ccc1Sc1ccc(S(=O)(=O)N2CCCC2)cc1` [Compound 96, 2,4-Dichloro-N-{6-propionyl-5-[4-(pyrrolidine-1-sulfonyl) -phenylsulfanyl]-pyridin-2-yl}-benzenesulfonamide] was tested, and the IC50 was under 1000 nM.

For `CCCC(=O)c1nc(NS(=O)(=O)c2ccc(C(F)(F)F)cc2Cl)ccc1Sc1ccc(S(=O)(=O)N2CCCC2)cc1` [Compound 97, N-{6-Butyryl-5-[4-(pyrrolidine-1-sulfonyl)-phenylsulfanyl]-pyridin-2-yl}-2-chloro-4-trifluoromethyl-benzenesulfonamide], the IC50 was under 1000 nM.

`O=C(c1nc(NS(=O)(=O)c2ccc(C(F)(F)F)cc2Cl)ccc1Sc1ccc(S(=O)(=O)N2CCCC2)cc1)C1CC1` [Compound 98, 2-Chloro-N-{6-cyclopropanecarbonyl-5-[4-(pyrrolidine-1-sulfonyl)-phenylsulfanyl]-pyridin-2-yl}-4-trifluoromethyl-benzenesulfonamide] gave an IC50 of under 1000 nM.

For `CCCC(=O)c1nc(NS(=O)(=O)c2ccc(C(F)(F)F)cc2Cl)ccc1Sc1ccc(S(=O)(=O)N(CC)CC)cc1` [Compound 99, N-[6-Butyryl-5-(4-diethylsulfamoyl-phenylsulfanyl)-pyridin-2-yl]-2-chloro-4-trifluoromethyl-benzenesulfonamide], the IC50 was under 1000 nM.

In the case of `CCN(CC)S(=O)(=O)c1ccc(Sc2ccc(NS(=O)(=O)c3ccc(C(F)(F)F)cc3Cl)nc2C(=O)C2CC2)cc1` [Compound 100, 2-Chloro-N-[6-cyclopropanecarbonyl-5-(4-diethylsulfamoyl-phenylsulfanyl)-pyridin-2-yl]-4-trifluoromethyl-benzenesulfonamide], the IC50 is reported as under 1000 nM.

For `CCCC(=O)c1nc(NS(=O)(=O)c2ccc(C(F)(F)F)cc2Cl)ccc1Sc1ccc(S(=O)(=O)C2CCOCC2)cc1` [Compound 101, N-{6-Butyryl-5-[4-(tetrahydro-pyran-4-sulfonyl)-phenylsulfanyl]-pyridin-2-yl}-2-chloro-4-trifluoromethyl-benzenesulfonamide], the IC50 was under 1000 nM.

With `O=C(c1nc(NS(=O)(=O)c2ccc(C(F)(F)F)cc2Cl)ccc1Sc1ccc(S(=O)(=O)C2CCOCC2)cc1)C1CC1` [Compound 102, 2-Chloro-N-{6-cyclopropanecarbonyl-5-[4-(tetrahydro-pyran-4-sulfonyl)-phenylsulfanyl]-pyridin-2-yl}-4-trifluoromethyl-benzenesulfonamide] the IC50 was under 1000 nM.
